Read-outs that look alike come from different tables or passages of the source.
Experiments:
μ-opioid receptor = μ-opioid receptor (Homo sapiens (Human), UniProt P35372); experiment: μ-opioid receptor radioligand dose-displacement binding assay ([3H]-diprenorphine); details: binding assays using HEK-293 cells
Method: Radioligand dose-displacement binding assays for μ-opioid receptors used 0.3 nM [^3H]-diprenorphine (Perkin Elmer, Shelton, Conn.), with […] membrane protein/well in a final volume of 500 μl binding buffer (10 mM MgCl2, 1 mM EDTA, 5% DMSO, 50 mM HEPES, pH 7.4). Reactions were carried out in the absence or presence of increasing concentrations of unlabeled naloxone. All reactions were conducted in 96-deep well polypropylene plates for 2 hours at room temperature. Binding reactions were terminated by rapid filtration onto 96-well Unifilter GF/C filter plates (Perkin Elmer, Shelton, Conn.), presoaked in 0.5% polyethylenimine using a 96-well tissue harvester (Perkin Elmer, Shelton, Conn.) followed by performing three filtration washes with 500 μl of ice-cold binding buffer. Filter plates were subsequently dried at 50° C. for 2-3 hours. BetaScint scintillation cocktail (Perkin Elmer, Shelton, Conn.) was added (50 μl/well), and plates were counted using a Packard Top-Count for 1 min/well. The data were analyzed using the one-site competition curve fitting functions in GraphPad PRISM™ v. 3.0 or higher (San Diego, Calif.), or an in-house function for one-site competition curve-fitting.
(§1) In TABLE 1, binding affinity of certain Compounds of the Invention to the μ- and κ-opioid receptors was determined as described above for binding assays using HEK-293 cells.

κ opioid receptor = κ opioid receptor (Homo sapiens (Human), UniProt P41145); experiment: κ-opioid receptor radioligand dose-displacement binding assay ([3H]-U69,593); details: binding assays using HEK-293 cells
Method: Membranes from HEK-293 cells, CHO or U-2 OS cells expressing the recombinant human κ opioid receptor (κ) were prepared by lysing cells in ice cold hypotonic buffer (2.5 mM MgCl2, 50 mM HEPES, pH 7.4) (10 mL/10 cm dish) followed by homogenization with a tissue grinder/Teflon pestle. Membranes from a cell line naturally expressing kappa opioid receptor can also be used. Membranes were collected by centrifugation at 30,000×g for 15 min at 4° C. and pellets were resuspended in hypotonic buffer to a final concentration of 1-3 mg/mL. Protein concentrations were determined using the BioRad protein assay reagent with bovine serum albumen as standard. Aliquots of K receptor membranes were stored at −80° C.
Radioligand dose displacement assays used 0.4 nM [^3H]-U69,593 (GE Healthcare, Piscataway, N.J.; 40 Ci/mmole) with 15 μg membrane protein (recombinant κ opioid receptor expressed in HEK 293 cells; in-house prep) in a final volume of 200 μl binding buffer (5% DMSO, 50 mM Trizma base, pH 7.4). Non-specific binding was determined in the presence of 10 μM unlabeled naloxone or U69,593. All reactions were performed in 96-well polypropylene plates for 1 hour at a temperature of about 25° C. Binding reactions were terminated by rapid filtration onto 96-well Unifilter GF/C filter plates (Perkin Elmer, Shelton, Conn.) presoaked in 0.5% polyethylenimine (Sigma). Harvesting was performed using a 96-well tissue harvester (Perkin Elmer, Shelton, Conn.) followed by five filtration washes with 200 μl ice-cold binding buffer. Filter plates were subsequently dried at 50° C. for 1-2 hours. Fifty μl/well scintillation cocktail (Perkin Elmer, Shelton, Conn.) was added and plates were counted in a Packard Top-Count for 1 min/well.
as §1

[1] = bound given in μM, read-out: Opioid Receptor Ki μ
[2] = bound given in μM, read-out: Opioid Receptor Ki κ
[3] = read-out: Opioid Receptor Ki (nM) κ
[4] = read-out: Opioid Receptor Ki (nM) μ

SMILES	Ki (μ-opioid receptor; [1])	Ki (κ opioid receptor; [2])	Ki (κ opioid receptor; [3])	Ki (μ-opioid receptor; [4])
COc1ccc2c3c1O[C@@H]1[C@]34CCN(CC3CC3)[C@H](C2=O)[C@]4(O)CC[C@]12NC(=O)NC2=O [Compound 8, (4S,4′S,4a′S,7a′R,12b′S)-3′-(cyclopropylmethyl)-4a′-hydroxy-9′-methoxy-2′,3′,4′,4a′,5′,6′-hexahydro-1′H,7a′H-spiro[imidazolidine-4,7′-[4,12]methanobenzofuro[3,2-e]isoquinoline]-2,5,13′-trione]	> 20 µM	> 20 µM		
COc1ccc2c(c1)[C@]13CCN(C)[C@H](C2=O)[C@]1(O)CC[C@@]1(C3)NC(=O)NC1=O [Compound 11, (4bR,4′S,8aS,9S)-8a-hydroxy-3-methoxy-11-methyl-7,8,8a,9-tetrahydrospiro [9,4b-(epiminoethano)phenanthrene-6,4′-imidazolidine]-2′,5′,10(5H)-trione]	> 20 µM	> 20 µM		
COc1ccc2c3c1O[C@@H]1[C@]34CCN(CC3CC3)[C@H]([C@@H]2O)[C@]4(O)CC[C@]12NC(=O)NC2=O (stereo in doubt) [Compound 9, (4S,4′R,4a′S,7a′R,12b′S,13′R)-3′-(cyclopropylmethyl)-4a′,13′-dihydroxy-9′-methoxy-2′,3′,4′,4a′,5′,6′-hexahydro-1′H,7a′H-spiro[imidazazolidine-4,7′-[4,12]methanobenzofuro[3,2-e]isoquinoline]-2,5-dione]	> 20 µM	> 20 µM		
COc1ccc2c(c1)[C@]13CCN(CC4CC4)[C@H](C2=O)[C@]1(O)CC[C@@]1(C3)NC(=O)NC1=O [Compound 6, (4bR,4′S,8aS,9S)-11-(cyclopropylmethyl)-8a-hydroxy-3-methoxy-7,8,8a,9-tetrahydrospiro[9,4b-(epiminoethano)phenanthrene-6,4′-imidazolidine]-2′,5′,10(5H)-trione]	> 20 µM		1.05 ± 0.0846 µM	
COc1ccc2c(c1)[C@]13CCN(CC4CC4)[C@H]([C@@H]2O)[C@]1(O)CC[C@@]1(C3)NC(=O)NC1=O [Compound 7, (4bR,4′S,8aS,9R,10R)-11-(cyclopropylmethyl)-8a,10-dihydroxy-3-methoxy-5,7,8,8a,9,10-hexahydrospiro[9,4b-(epiminoethano)phenanthrene-6,4′-imidazolidine]-2′,5′-dione]	> 20 µM	> 20 µM		
O=C1NC(=O)[C@@]2(CC[C@@]3(O)[C@H]4C(=O)c5ccc(O)c6c5[C@@]3(CCN4CC3CC3)[C@H]2O6)N1 [Compound 15, (4S,4′S,4a′S,7a′R,12b′S)-3′-(cyclopropylmethyl)-4a′,9′-dihydroxy-2′,3′,4′,4a′,5′,6′-hexahydro-1′H,7a′H-spiro [imidazolidine-4,7′-[4,12]methanobenzofuro [3,2-e]isoquinoline]-2,5,13′-trione]			2.52 ± 0.708 µM	15.4 ± 3.13 µM
COc1ccc2c(c1)[C@]13CCN(C)[C@H]([C@@H]2O)[C@]1(O)CC[C@@]1(C3)NC(=O)NC1=O [Compound 12, (4bR,4′S,8aS,9R,10R)-8a,10-dihydroxy-3-methoxy-11-methyl-5,7,8,8a,9,10-hexahydrospiro[9,4b-(epiminoethano)phenanthrene-6,4′-imidazolidine]-2′,5′-dione]		> 20 µM		12.6 µM
COc1ccc2c(c1)[C@]13CCN(CC4CC4)[C@H]([C@@H]2O)[C@@H]1CC[C@@]1(C3)NC(=O)NC1=O [Compound 10, (4bS,4′S,8aR,9S,10R)-11-(cyclopropylmethyl)-10-hydroxy-3-methoxy-5,7,8,8a,9,10-hexahydrospiro[9,4b-(epiminoethano)phenanthrene-6,4′-imidazolidine]-2′,5′-dione]	> 20 µM		3.58 ± 0.647 µM	
O=C1NC(=O)[C@@]2(CC[C@@]3(O)[C@H]4[C@H](O)c5ccc(O)c6c5[C@@]3(CCN4CC3CC3)[C@H]2O6)N1 [Compound 16, (4S,4′R,4a′S,7a′R,12b′S,13′R)-3′-(cyclopropylmethyl)-4a′,9′,13′-trihydroxy-2′,3′,4′,4a′,5′,6′-hexahydro-1′H,7a′H-spiro[imidazolidine-4,7′-[4,12]methanobenzofuro [3,2-e]isoquinoline]-2,5-dione]	> 20 µM	> 20 µM		
